Several values for one entry are separate records, joined by “and”; a condition that tells them apart may be missing. Equal values may be shown once.
Conditions: Liquid, Alternating current cell with electrodes

[Be+2].[Cl-].[Cl-] [beryllium chloride]
Conditions	electrical conductivity [S/m]
693.15 K	74.7
695.15 K	80.5
698.65 K	87.7
701.65 K	96.1
705.65 K	107
711.65 K	132
714.65 K	143
719.65 K	165
721.65 K	174
724.65 K	186
726.15 K	193
728.15 K	202
735.65 K	253
738.15 K	270
739.65 K	288
741.65 K	297
744.65 K	327
746.15 K	335
747.15 K	348
750.15 K	376
752.15 K	398
755.15 K	437
759.65 K	454
761.15 K	488
763.15 K	505
765.15 K	531
766.35 K	545
767.35 K	572
770.15 K	610
772.85 K	636
775.15 K	670
777.65 K	707
781.65 K	730
783.65 K	763
786.15 K	824
787.15 K	836
788.15 K	851
790.15 K	887
793.15 K	935
795.15 K	954
795.65 K	966
797.15 K	1010
801.65 K	1090
807.65 K	1160
809.65 K	1180
822.65 K	1390

[Cl][Pb][Cl] [lead(2+) dichloride]
Conditions	electrical conductivity [S/m]
783.15 K	150
800.15 K	159
824.15 K	170
854.15 K	185
883.15 K	197
913.15 K	210
943.15 K	221
972.15 K	233
1001.1 K	244
1030.2 K	254
1058.2 K	263
1090.2 K	272
1118.2 K	279
1149.2 K	286
1177.2 K	292
1210.2 K	298
1230.2 K	302
1254.2 K	309
1279.2 K	315
1297.2 K	318
1320.2 K	321

[Cl-].[Cl-].[Zn+2] [zinc chloride]
Conditions	electrical conductivity
558.15 K	0.0363 S/m
568.15 K	0.0568 S/m
578.15 K	0.0874 S/m
588.15 K	0.131 S/m
598.15 K	0.179 S/m
618.15 K	0.36 S/m
638.15 K	0.646 S/m
681.15 K	1.86 S/m
717.15 K	3.93 S/m
739.15 K	5.57 S/m
756.65 K	7.13 S/m
814.65 K	14.4 S/m
814.95 K	14.4 S/m
858.65 K	21.9 S/m
879.15 K	26.3 S/m
893.15 K	28.8 S/m
936.15 K	38.8 S/m
970.15 K	47 S/m
974.65 K	48.1 S/m
981.15 K	49.8 S/m
1005.1 K	55.4 S/m
1030.2 K	61.4 S/m
1062.2 K	69.2 S/m
1078.2 K	73.5 S/m and 74.2 S/m
1092.2 K	76.8 S/m
1100.2 K	79.2 S/m
1110.2 K	81.2 S/m
1114.2 K	82.8 S/m
1128.2 K	85.7 S/m
1131.2 K	87.1 S/m
1143.2 K	89 S/m
1144.7 K	90.3 S/m
1163.2 K	93.5 S/m
1167.2 K	95.9 S/m
1183.7 K	100 S/m
1195.7 K	103 S/m
1214.2 K	107 S/m
1225.2 K	110 S/m
1236.2 K	113 S/m
1245.7 K	115 S/m
1259.7 K	118 S/m
1279.7 K	122 S/m
1297.2 K	126 S/m
1306.2 K	127 S/m
1316.7 K	129 S/m
1324.2 K	131 S/m
1341.7 K	134 S/m
1350.2 K	135 S/m
1359.7 K	137 S/m
1376.7 K	139 S/m
1386.7 K	141 S/m
1399.2 K	142 S/m
1406.2 K	143 S/m
1414.2 K	144 S/m
1421.2 K	145 S/m

From the NIST ThermoML archive (doi:10.1021/je500433d)
